The source of these data is paper PMC10182041, “A first-in-class inhibitor of Hsp110 molecular chaperones of pathogenic fungi” (Nature Communications, 2023).

As a reminder, the IC50 is the concentration that inhibits the measured activity by half. A lower IC50 goes with higher potency.

One test concerns the target Ssa1 (Saccharomyces cerevisiae, UniProt P10591). Nature of the test: displacement of pre-bound ATP-FAM, fluorescence polarization. Type of test: binding. A general note: Fluorescence polarisation rises when a labelled molecule tumbles more slowly, as on binding a larger partner.
Test [1] has as its target Msi3 (Candida albicans, UniProt Q96VB9). The test is described as follows: IC50 from the luciferase holdase assay. Type of test: biochemical.
Test [2] has as its target Msi3 (Candida albicans, UniProt Q96VB9, I164D). Nature of the test: luciferase aggregation (holdase) assay at OD320 with purified mutant. The test is classed as biochemical.
For a further test, the target named is T1, Sse1 (Saccharomyces cerevisiae, UniProt P32589).
T1 sequence (P32589 1-693): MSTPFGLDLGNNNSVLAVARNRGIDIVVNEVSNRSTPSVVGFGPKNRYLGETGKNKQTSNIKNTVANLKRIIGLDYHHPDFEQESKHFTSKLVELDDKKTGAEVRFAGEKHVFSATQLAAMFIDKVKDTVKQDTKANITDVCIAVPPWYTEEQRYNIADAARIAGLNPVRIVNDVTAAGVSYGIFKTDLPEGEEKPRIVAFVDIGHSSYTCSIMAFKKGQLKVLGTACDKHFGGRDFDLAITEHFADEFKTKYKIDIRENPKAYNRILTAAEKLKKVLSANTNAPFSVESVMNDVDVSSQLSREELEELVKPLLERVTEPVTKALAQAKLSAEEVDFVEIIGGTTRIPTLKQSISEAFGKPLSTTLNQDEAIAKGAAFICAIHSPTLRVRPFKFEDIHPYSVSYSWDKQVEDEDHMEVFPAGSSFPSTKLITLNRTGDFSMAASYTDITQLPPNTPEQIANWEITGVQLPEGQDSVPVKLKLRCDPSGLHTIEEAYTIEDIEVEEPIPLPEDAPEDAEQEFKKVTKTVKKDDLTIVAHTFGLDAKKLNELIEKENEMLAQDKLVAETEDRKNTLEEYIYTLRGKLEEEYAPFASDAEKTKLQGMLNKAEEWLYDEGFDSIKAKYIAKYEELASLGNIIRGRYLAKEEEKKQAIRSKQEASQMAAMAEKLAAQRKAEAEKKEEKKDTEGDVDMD
Nature of the test: reduction of ATP-FAM binding to purified Sse1, fluorescence polarization. Type of test: biochemical.

Each structure is given as a SMILES string.

Msi3 (Candida albicans, UniProt Q96VB9, I164D), sequence (Q96VB9 whole entry I164D): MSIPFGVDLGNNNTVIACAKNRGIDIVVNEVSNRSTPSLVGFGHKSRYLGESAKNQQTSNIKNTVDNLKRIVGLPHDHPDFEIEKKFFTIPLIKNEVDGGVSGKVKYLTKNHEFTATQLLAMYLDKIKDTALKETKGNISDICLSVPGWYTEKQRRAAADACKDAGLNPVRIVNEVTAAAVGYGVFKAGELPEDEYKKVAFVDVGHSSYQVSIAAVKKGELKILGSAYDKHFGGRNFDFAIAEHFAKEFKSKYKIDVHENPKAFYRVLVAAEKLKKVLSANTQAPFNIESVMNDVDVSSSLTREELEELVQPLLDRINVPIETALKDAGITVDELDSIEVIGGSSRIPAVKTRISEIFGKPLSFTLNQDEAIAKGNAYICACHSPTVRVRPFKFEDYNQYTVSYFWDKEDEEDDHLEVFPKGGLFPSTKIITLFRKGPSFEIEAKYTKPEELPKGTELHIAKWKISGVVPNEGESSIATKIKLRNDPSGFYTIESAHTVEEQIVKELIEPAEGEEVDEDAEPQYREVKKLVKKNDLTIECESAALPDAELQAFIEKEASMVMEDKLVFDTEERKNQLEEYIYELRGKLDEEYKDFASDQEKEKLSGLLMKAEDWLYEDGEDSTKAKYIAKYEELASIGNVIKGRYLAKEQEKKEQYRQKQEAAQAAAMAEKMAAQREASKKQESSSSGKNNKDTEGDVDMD
Ssa1, sequence (P10591 2-642): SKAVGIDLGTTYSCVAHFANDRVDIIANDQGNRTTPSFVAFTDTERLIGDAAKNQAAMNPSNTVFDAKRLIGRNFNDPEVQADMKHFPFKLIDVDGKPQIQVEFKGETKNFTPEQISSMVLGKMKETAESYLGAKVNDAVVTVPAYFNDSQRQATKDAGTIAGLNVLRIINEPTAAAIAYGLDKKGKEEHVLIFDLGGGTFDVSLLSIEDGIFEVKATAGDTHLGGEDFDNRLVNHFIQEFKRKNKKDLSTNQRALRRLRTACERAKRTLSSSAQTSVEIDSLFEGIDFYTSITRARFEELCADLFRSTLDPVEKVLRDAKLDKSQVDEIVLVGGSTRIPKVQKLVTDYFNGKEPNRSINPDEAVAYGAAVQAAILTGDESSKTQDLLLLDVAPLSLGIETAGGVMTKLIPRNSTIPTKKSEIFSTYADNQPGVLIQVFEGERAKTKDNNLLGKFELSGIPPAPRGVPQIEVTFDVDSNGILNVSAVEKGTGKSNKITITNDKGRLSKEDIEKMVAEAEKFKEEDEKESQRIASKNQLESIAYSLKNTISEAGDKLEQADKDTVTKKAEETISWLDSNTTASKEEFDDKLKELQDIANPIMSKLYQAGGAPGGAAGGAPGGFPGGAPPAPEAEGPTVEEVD
Msi3 (Candida albicans, UniProt Q96VB9), sequence (Q96VB9 whole entry): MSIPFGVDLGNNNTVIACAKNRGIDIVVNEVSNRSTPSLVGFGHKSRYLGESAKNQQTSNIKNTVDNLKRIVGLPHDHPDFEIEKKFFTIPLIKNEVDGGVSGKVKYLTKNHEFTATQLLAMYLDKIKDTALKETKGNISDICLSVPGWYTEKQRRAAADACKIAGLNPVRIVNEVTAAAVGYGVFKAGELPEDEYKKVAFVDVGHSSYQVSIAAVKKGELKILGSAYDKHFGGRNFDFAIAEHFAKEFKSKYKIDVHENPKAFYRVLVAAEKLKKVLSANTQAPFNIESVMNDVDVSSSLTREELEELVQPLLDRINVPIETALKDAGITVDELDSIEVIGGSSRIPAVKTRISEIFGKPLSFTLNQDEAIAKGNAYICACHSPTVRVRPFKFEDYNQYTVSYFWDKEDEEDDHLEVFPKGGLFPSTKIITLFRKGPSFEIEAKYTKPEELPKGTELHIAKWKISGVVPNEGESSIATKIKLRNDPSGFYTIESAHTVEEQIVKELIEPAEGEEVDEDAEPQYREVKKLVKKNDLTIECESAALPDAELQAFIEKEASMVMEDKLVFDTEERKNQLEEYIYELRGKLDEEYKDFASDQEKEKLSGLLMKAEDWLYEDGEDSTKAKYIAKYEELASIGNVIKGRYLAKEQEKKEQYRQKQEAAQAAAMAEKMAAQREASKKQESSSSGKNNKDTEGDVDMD

`Nc1ncnc2c1ncn2[C@@H]1O[C@H](COP(=O)(O)OP(=O)(O)OP(=O)(O)O)[C@@H](O)[C@H]1O` [ATP]: the “displacement of pre-bound ATP-FAM, fluorescence polarization” value on Ssa1 is “suggesting that the pre-bound ATP-FAM was slowly replaced by the regular ATP”.
Regarding `Cc1cccc(COc2nc3c(cc2-c2nc(N)cc(N)n2)c(C)nn3-c2ccccc2)c1` [2H, HLQ2H], the IC50 on Msi3 [1] turned out to be 5.02 ± 0.35 µM. In addition, the “luciferase aggregation (holdase) assay at OD320 with purified mutant” value at Msi3 [2] is “A similar inhibition of holdase activity was observed for this mutant when treated with 2H (Fig. S6a)”. In addition, on Sse1, the “reduction of ATP-FAM binding to purified Sse1, fluorescence polarization” value is reported as 2H showed a similar inhibition on Sse1 (Fig. S1a), the major Hsp110 from S. cerevisiae.
